The record followed here is patent publication US20050100940A1, “Novel FDRG protein and nucleic acid molecules and uses therefor” (Millennium Pharmaceuticals, Inc., priority 1998, published 2005).

For assay [1], the system named is FDRG mRNA in NIH3T3 fibroblasts stably expressing PPARγ. The assay is described as follows: Northern blot of FDRG mRNA in NIH3T3 fibroblasts stably expressing PPARγ. The format is cell-based, murine. The protocol:
NIH3T3 fibroblasts stably expressing PPARγ were treated with 10 μg/ml pioglitazone for 0, 2, and 4 hours.

In assay [2] the test system is Male Zucker diabetic fatty (fa/fa) rats. The assay is described as follows: Chronic troglitazone treatment of Zucker diabetic fatty rats, Northern blots of white adipose tissue. The class given is in vivo, rat. The note with it: 6 mg/kg/day in food, after 4 and 20 weeks of treatment. The protocol: This experiment describes analysis of FDRG mRNA levels in rats following chronic troglitazone treatment to determine if FDRG expresion is regulated by PPARγ in vivo. Male Zucker diabetic fatty (fa/fa) rats were treated with 6 mg/kg/day (1.2% w/v) troglitazone or placebo admixed with food starting at 6 weeks of age and continuing until 26 weeks. […] Northern blots were performed on RNA isolated from white adipose tissue of treated and untreated animals, four from each group, after 4 and 20 weeks of treatment. […] This was true even when normalized to aP2, a fat cell marker. Glut4 mRNA was also found to be elevated, in agreement with published reports by other groups. Ribosomal-associated 36B4 served as a loading control.

The next assay concerns lean or ob/ob mice. As to the kind of experiment: Intraperitoneal leptin administration versus pair-fed mice, FDRG expression in brown fat. The class given is in vivo, mouse. The note with it: 12.5 mg/kg leptin i.p. twice daily. As for the experimental part: In this study, 10 week old lean or ob/ob mice were divided into three groups. The first group was the control, intraperitoneally injected with 1.5 ml PBS twice daily. […] The third group, the pair-fed group, was diet restricted to match the amount of food intake by the leptin-injected group, and was also injected with PBS. The animals were sacrified at the end of one week. […] That may reflect a fundamental difference in leptin-induced dietary restriction versus externally imposed restriction, or may be consistent with a further downstream effect, e.g., leptin-mediated suppression of FDRG upregulation that would ordinarily result from reduced food intake.

Where only a bound is given, the exact number is not on record here.

On to `C[C@@H]1C[C@@H]([C@H](O)CC2CC(=O)NC(=O)C2)C(=O)[C@@H](C)C1` [cycloheximide], for which the “Effect on FDRG mRNA by itself” value in assay [1] (5 μg/ml cycloheximide alone) is “causes a rise in FDRG mRNA”. For the same compound, the “Effect of pre-treatment on pioglitazone induction of FDRG mRNA” value in assay [1] (pre-treatment with 5 μg/ml cycloheximide, then 10 μg/ml pioglitazone) is reported as “does not block this induction”. Turning to `CCc1ccc(CCOc2ccc(CC3SC(=O)NC3=O)cc2)nc1` (stereo not drawn) [pioglitazone], the “Increase in FDRG mRNA” value in assay [1] (10 μg/ml pioglitazone, within two hours, versus untreated cells) is listed as at least 10 fold. For `Cc1c(C)c2c(c(C)c1O)CCC(C)(COc1ccc(CC3SC(=O)NC3=O)cc1)O2` (stereo not drawn) [troglitazone], in assay [2], the “FDRG expression in vivo, upregulation versus controls” value is given as 3-5 fold.

In the case of “leptin: a protein secreted by fat cells, metabolic hormone”, the Dietary intake result in the assay on lean or ob/ob mice is on record as “decrease in dietary intake”. For the same compound, the “FDRG expression in brown fat (rise seen with restriction of caloric intake)” value in the assay with lean or ob/ob mice (one week, versus pair-fed group) was “this rise is not seen”.
